In patent US7273614B2 (priority 1993, dated 2007):
Entries after “also recorded” stand apart in the source; their conditions may differ. Where two headings read alike, the source gives them in different places. Peptide text beside a SMILES is read from it.

Tests used:
[1] = system: HIV-1/IIIb; test: Anti-HIV assays of DP107 and DP178 truncations and mutations; type: cell-based; conditions: FIGS. 49, 50
Text: Anti-HIV assays: The antiviral assays performed were as those described, above, in Section 6.1. Assays utilized HIV-1/IIIb and/or HIV-2 NIHZ isolates. Purified peptides were used, unless otherwise noted in FIGS. 49A-L.

[2] = system: CEM cells; test: Cell proliferation and toxicity assay; type: cell-based
Description: Cell proliferation and toxicity assay: Approximately 3.8×10^5 CEM cells for each peptide concentration were incubated for 3 days at 37° C. in T25 flasks. Peptides tested were DP178 (SEQ ID:1) and DP-116 (SEQ ID:9), as described in FIG. 1. Peptides were synthesized as described, above, in Section 6.1. The concentrations of each peptide used were 0, 2.5, 10, and 40 μg/ml. Cell counts were taken at incubation times of 0, 24, 48, and 72 hours.

[3] = target: viral gp41 of HIV-1 (HIV-1IIIB) (HIV-1 IIIB) (UniProt P03377); test: cell-based or functional assay
[4] = system: Fab-d; test: ELISA analysis of DP178 binding to the leucine zipper motif of gp41 (Fab-d ELISA); design: species or system human; conditions: FIG. 10
Description: Each well was washed three times with distilled water then blocked with 3% bovine serum albumin (BSA) for 2 hours. After blocking, peptides with 0.5% BSA in TBST (40 mM Tris-HCl pH7.5, 150 mM NaCl, 0.05% Tween 20) were added to the ELISA plates and incubated at room temperature for 1 hour. After washing three times with TBST, Fab-d was added at a concentration of 10 ng/ml with 0.5% BSA in TBST. The plates were washed three times with TBST after incubation at room temperature for 1 hour. Horse radish peroxidase (HRP) conjugated goat antihuman Fab antiserum at a 2000 fold dilution in TBST with 0.5% BSA was added to each well and incubated at room temperature for 45 minutes. The plates were then washed four times with TBST. The peroxidase substrate o-phenylene diamine (2.5 mg/ml) and 0.15% H2O2 were added to develop the color. The reaction was stopped with an equal volume of 4.5 N H2SO4 after incubation at room temperature for 10 minutes. The optical density of the stopped reaction mixture was measured with a micro plate reader (Molecular Design) at 490 nm.

[5] = system: HIV-2NIHZ; test: Cell free virus infection assay (CEM CD4+ cells, reverse transcriptase readout); type: cell-based
Description: (§1) Synthetic peptides were incubated at 37° C. with either 247 TCID50 (for experiment depicted in FIG. 2), or 62 TCID50 (for experiment depicted in FIG. 3) units of HIV-1LAI virus or 25 TCID50 units of HIV-2NIHZ and CEM CD4+ cells at peptide concentrations of 0, 0.04, 0.4, 4.0, and 40 μg/ml for 7 days. The resulting reverse transcriptase (RT) activity in counts per minute was determined using the assay described, below, in Section 6.1.5. See, Reed, L. J. et al., 1938, Am. J. Hyg. 27: 493-497 for an explanation of TCID50 calculations.
(§2) The micro-reverse transcriptase (RT) assay was adapted from Goff et al. (Goff, S. et al., 1981, J. Virol. 38:239-248) and Willey et al. (Willey, R. et al., 1988, J. Virol. 62:139-147). Supernatants from virus/cell cultures are adjusted to 1% Triton-X100. A 10 μl sample of supernatant was added to 50 μl of RT cocktail in a 96-well U-bottom microtitre plate and the samples incubated at 37° C. for 90 min. The RT cocktail contained 75 mM KCl, 2 mM dithiothreitol, 5 mM MgCl2, 5 μg/ml poly A (Pharmacia, cat. No. 27-4110-01), 0.25 units/ml oligo dT (Pharmacia, cat. No. 27-7858-01), 0.05% NP40, 50 mM Tris-HCl, pH 7.8, 0.5 μM non-radioactive dTTP, and 10 μCi/ml ^32P-dTTP (Amersham, cat. No. PB.10167). […]

[6] = system: HIV-2; test: Cell fusion assay: HIV-2 mediated syncytia formation; type: cell-based; conditions: failed to block at highest concentration; FIG. 5
Description: (§3) Approximately 7×10^4 Molt cells were incubated with 1×10^4 CEM cells chronically infected with the HIV-1LAI virus in 96-well plates (one-half area cluster plates; Costar, Cambridge, Mass.) in a final volume of 100 μl culture medium as previously described (Matthews, T. J. et al., 1987, Proc. Natl. Acad. Sci. USA 84: 5424-5428). Peptide inhibitors were added in a volume of 10 μl and the cell mixtures were incubated for 24 hr. at 37° C. At that time, multinucleated giant cells were estimated by microscopic examination at a 40× magnification which allowed visualization of the entire well in a single field.

[7] = system: HIV-1
Description: as §3
The initial screen for antiviral activity assayed peptides' ability to block syncytium formation induced by overnight co-cultivation of uninfected Molt4 cells with chronically HIV-1 infected CEM cells. […] In the first of these experiments, serial DP178 (SEQ ID: 1) peptide concentrations between 10 μg/ml and 12.5 ng/ml were tested for blockade of the cell fusion process. For these experiments, CEM cells chronically infected with either HIV-1LAI, HIV-1MN, HIV-1RF, or HIV-1SF2 virus were cocultivated overnight with uninfected Molt 4 cells.
The next series of experiments involved a comparison of DPI 78 (SEQ ID: 1) HIV-1 and HIV-2 inhibitory activity.

[8] = system: HIV-1IIIB; type: cell-based; conditions: 10 nM peptide
Description: CEM cells (7×10^4) were incubated with HIV-1IIIB chronically infected CEM cells (10^4) in 96-well flat-bottomed half-area plates (Costar) in 100 μl culture medium. Peptide and fusion proteins at various concentrations in 10 μl culture medium were incubated with the cell mixtures at 37° C. for 24 hours. Multinucleated syncytia were estimated with microscopic examination.

[9] = system: HIV-1LAI; conditions: Wild et al. 1992; cited from earlier work
[10] = system: HIV-1LAI; test: Cell free virus infection assay (CEM CD4+ cells, reverse transcriptase readout); type: cell-based; conditions: FIG. 1 legend
Description: as §1, §2

T-611: SEQ ID NO. 175; DP178 truncation/mutation peptide (LKLDKWASLWNWF)
anti-HIV antiviral activity (in words) [1]: high level of antiviral activity

T-378: SEQ ID NO. 168; DP178 truncation/mutation peptide (CLELDKWASLWNFFC)
anti-HIV antiviral activity (in words) [1]: high level of antiviral activity

T-677: SEQ ID NO. 165; DP178 truncation/mutation peptide (FWNWLSAWKDLELYPGSLELDKWASLWNWF)
anti-HIV antiviral activity (in words) [1]: high level of antiviral activity

T-235: SEQ ID NO. 162; DP178 truncation/mutation peptide (RMKQLEDKVEELLSKLELDKWASLWNWF)
anti-HIV antiviral activity (in words) [1]: high level of antiviral activity

enfuvirtide
non-cytotoxic concentration relative to HIV inhibitory dose ([2]; 40 μg/ml vs HIV inhibitory dose): greater than 3 log
cytotoxic effects on cells in culture (in words) ([2]; up to highest peptide concentration tested, 40 μg/ml, CEM cells, 3 days): not toxic to cells; also recorded: non-cytotoxic; also recorded: no cytotoxic effects

T-377: SEQ ID NO. 167; DP178 truncation/mutation peptide (CLELDKWASLANWFC)
anti-HIV antiviral activity (in words) [1]: high level of antiviral activity

M41, maltose binding protein fusion with the extracellular domain of gp41 (540-686) (from UniProt P03377 540-686)
Cell fusion (IC90) [3]: > 50000 nM
HIV infectivity (IC90) [3]: > 16000 nM

T-381: SEQ ID NO. 164; DP178 truncation/mutation peptide (RMKQLEDKVEELLSKNYHLENELELDKWASLWNWF)
anti-HIV antiviral activity (in words) [1]: high level of antiviral activity

Enfuvirtide
Fab-d binding (in words) [4]: failed to bind
IC50 for HIV-2NIHZ (in words) ([5]; 25 TCID50 HIV-2NIHZ, CEM cells, 7 days, FIG. 3): much higher IC50
potency as HIV-1 inhibitor relative to HIV-2 inhibitor ([5]; HIV-1LAI vs HIV-2NIHZ cell-free infection): two logs more potent
peptide concentration blocking HIV-2 mediated syncytia formation [6]: > 10 µg/mL
concentration affording complete protection against syncytia formation (lowest concentration tested) ([7]; HIV-1LAI, FIG. 4): ≤ 12.5 ng/mL
concentration affording complete protection against syncytia formation (lowest concentration tested) ([7]; HIV-1MN, HIV-1RF, HIV-1SF2, FIG. 4): ≤ 100 ng/mL
concentration completely blocking virus induced syncytia formation (lowest effective inhibitory concentration) ([7]; HIV-1 mediated cell-cell fusion): 1 to 10 ng/mL
selectivity as inhibitor of HIV-1-mediated over HIV-2-mediated cell fusion ([7]; HIV-1 vs HIV-2): 4 log
peptide concentration blocking HIV-1-mediated syncytia formation ([7]; HIV-1 vs HIV-2 comparison, FIG. 5): below 1 ng/ml
syncytia in the presence of peptide (in words) [8]: no observable syncytia

DP107 (SEQ ID NO: 89), synthetic peptide corresponding to amino acids 558 to 595 of HIV-1LAI gp41
Cell fusion (IC90) [3]: 1000 nM
HIV infectivity (IC90) [3]: 1000 nM

T-590: SEQ ID NO. 167; DP178 truncation/mutation peptide (CLELDKWASLANWFC)
anti-HIV antiviral activity (in words) [1]: high level of antiviral activity

CC[C@H](C)[C@H](NC(=O)[C@H](CCCNC(=N)N)NC(=O)[C@H](C)NC(=O)[C@H](CCC(N)=O)NC(=O)[C@H](CC(C)C)NC(C)=O)C(=O)N[C@@H](CC(C)C)C(=O)N[C@@H](C)C(=O)N[C@H](C(=O)N[C@@H](CCC(=O)O)C(=O)N[C@@H](CCCNC(=N)N)C(=O)N[C@@H](Cc1ccc(O)cc1)C(=O)N[C@@H](CC(C)C)C(=O)N[C@@H](CCCCN)C(=O)N[C@@H](CC(=O)O)C(=O)N[C@@H](CCC(N)=O)C(=O)N[C@@H](CCC(N)=O)C(=O)N[C@@H](CCC(N)=O)C(N)=O)C(C)C [DP-116] (Ac-LQARILAVERYLKDQQQ-NH2)
activity in cell-free HIV-1 infection assay, previously shown (in words) [9]: inactive; also recorded: ineffective as a HIV inhibitor
inhibition of HIV-1 cell free virus infection (in words) [10]: negative for inhibition of HIV-1 infection

DP178 (SEQ ID NO:1), synthetic peptide corresponding to amino acids 638 to 673 of HIV-1LAI gp41
Cell fusion (IC90) [3]: 1 nM
HIV infectivity (IC90) [3]: 80 nM

H-YTNTIYTLLEESQNQQEKNEQELLELDKWASLWNWF-OH [DP-185]
HIV-1-mediated syncytia formation (in words) [7]: block HIV-1-mediated syncytia formation
concentration with inhibitory activity on HIV-1-induced syncytia formation ([7]; lowest concentration tested, FIG. 4): ≤ 312.5 ng/mL

T-591: SEQ ID NO. 168; DP178 truncation/mutation peptide (CLELDKWASLWNFFC)
anti-HIV antiviral activity (in words) [1]: high level of antiviral activity
